Reference: ChEMBL document CHEMBL1201862, “PubChem BioAssay data set” (2004)
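All cell lines were grown in 96-well plates and treated with compound for 48 hours. The concentration for 50% growth inhibition is given as GI50.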 The source made the active and inactive calls. No stated cut-off is given here; in the data, active = GI50 up to about 1.1 µM and inactive = higher.

Experiments:
Assay in all cases: NCI tumour cell line growth inhibition, 48 h
LXFL 529 = test system: LXFL 529
SF-295 = test system: SF-295
SNB-78 = test system: SNB-78
M14 = test system: M14
RXF 393 = test system: RXF 393
IGROV-1 = test system: IGROV-1
HCC 2998 = test system: HCC 2998
DMS-273 = test system: DMS-273
SK-MEL-28 = test system: SK-MEL-28
KM12 = test system: KM12
RPMI-8226 = test system: RPMI-8226
786-0 = test system: 786-0
DMS-114 = test system: DMS-114
SNB-75 = test system: SNB-75
SNB-19 = test system: SNB-19
OVCAR-4 = test system: OVCAR-4
CCRF-CEM = test system: CCRF-CEM
NCI-H522 = test system: NCI-H522
A549 = test system: A549
TK-10 = test system: TK-10
SR = test system: SR
K562 = test system: K562
UO-31 = test system: UO-31
KM-20L2 = test system: KM-20L2
HT-29 = test system: HT-29
ACHN = test system: ACHN
RXF 631 = test system: RXF 631
Malme-3M = test system: Malme-3M
EKVX = test system: EKVX
NCI-H460 = test system: NCI-H460
UACC-62 = test system: UACC-62
OVCAR-8 = test system: OVCAR-8
HOP-92 = test system: HOP-92
M19-MEL = test system: M19-MEL
SK-MEL-2 = test system: SK-MEL-2
XF498 = test system: XF498
SK-MEL-5 = test system: SK-MEL-5
SF-539 = test system: SF-539
NCI-H23 = test system: NCI-H23
A498 = test system: A498
MOLT-4 = test system: MOLT-4
U-251 = test system: U-251
OVCAR-5 = test system: OVCAR-5
HCT-116 = test system: HCT-116
DLD-1 = test system: DLD-1
SK-OV-3 = test system: SK-OV-3
SW-620 = test system: SW-620
LOX IMVI = test system: LOX IMVI
HCT-15 = test system: HCT-15
SF-268 = test system: SF-268
CAKI-1 = test system: CAKI-1
NCI-H226 = test system: NCI-H226
HL-60 = test system: HL-60
HOP-18 = test system: HOP-18
UACC-257 = test system: UACC-257
SN12C = test system: SN12C
HOP-62 = test system: HOP-62

## CN(C)C1=NC2=S(SC(Nc3ccccc3)=N2)S1 (configuration not stated)
LXFL 529
  GI50: 10 µM (inactive)
SF-295
  GI50: 24.5 µM (inactive)
SNB-78
  GI50: 34.4 µM (inactive)
M14
  GI50: 58.1 µM (inactive)
RXF 393
  GI50: 32 µM (inactive)
IGROV-1
  GI50: 15.7 µM (inactive)
HCC 2998
  GI50: 21 µM (inactive)
DMS-273
  GI50: 14.8 µM (inactive)
SK-MEL-28
  GI50: 17.2 µM (inactive)
KM12
  GI50: 26.4 µM (inactive)
RPMI-8226
  GI50: 9.33 µM (inactive)
786-0
  GI50: 28.8 µM (inactive)
DMS-114
  GI50: 3.47 µM (inactive)
SNB-75
  GI50: 28.7 µM (inactive)
SNB-19
  GI50: 26.3 µM (inactive)
OVCAR-4
  GI50: 19 µM (inactive)
CCRF-CEM
  GI50: 15.5 µM (inactive)
NCI-H522
  GI50: 10.3 µM (inactive)
A549
  GI50: 7.85 µM (inactive)
TK-10
  GI50: 27.9 µM (inactive)
SR
  GI50: 17.1 µM (inactive)
K562
  GI50: 6.62 µM (inactive)
UO-31
  GI50: 24 µM (inactive)
KM-20L2
  GI50: 32.9 µM (inactive)
HT-29
  GI50: 33.6 µM (inactive)
ACHN
  GI50: 11.9 µM (inactive)
RXF 631
  GI50: > 100 µM (inactive)
Malme-3M
  GI50: 16.1 µM (inactive)
EKVX
  GI50: 12.9 µM (inactive)
NCI-H460
  GI50: 36.1 µM (inactive)
UACC-62
  GI50: 21.2 µM (inactive)
OVCAR-8
  GI50: 26.6 µM (inactive)
HOP-92
  GI50: 22.7 µM (inactive)
M19-MEL
  GI50: 30 µM (inactive)
SK-MEL-2
  GI50: 7.62 µM (inactive)
XF498
  GI50: 14 µM (inactive)
SK-MEL-5
  GI50: 5.87 µM (inactive)
SF-539
  GI50: 20.2 µM (inactive)
NCI-H23
  GI50: 28.2 µM (inactive)
A498
  GI50: 14.6 µM (inactive)
MOLT-4
  GI50: 10.3 µM (inactive)
U-251
  GI50: 19.4 µM (inactive)
OVCAR-5
  GI50: 34.8 µM (inactive)
HCT-116
  GI50: 10.5 µM (inactive)
DLD-1
  GI50: 27.2 µM (inactive)
SK-OV-3
  GI50: 46.9 µM (inactive)
SW-620
  GI50: 46.5 µM (inactive)
LOX IMVI
  GI50: 22.7 µM (inactive)
HCT-15
  GI50: 11.9 µM
SF-268
  GI50: 34.5 µM (inactive)
CAKI-1
  GI50: 26.5 µM (inactive)
NCI-H226
  GI50: 22.2 µM (inactive)
HL-60
  GI50: 10 µM (inactive)
HOP-18
  GI50: 25 µM (inactive)
UACC-257
  GI50: 7.8 µM (inactive)
SN12C
  GI50: 31.3 µM (inactive)
HOP-62
  GI50: 24.2 µM (inactive)
